Assays:
Assay in all cases: relative viability (nuclei count vs DMSO), 5 days (fraction); higher = more cells survive
Tivozanib = compound: COc1cc2nccc(Oc3ccc(NC(=O)Nc4cc(C)on4)c(Cl)c3)c2cc1OC [Tivozanib]
In short: (§1)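 On vehicle-anchored 1536-well plates, lung cancer cell lines held overnight at 37 °C were pinned with five library-drug doses (not always all listed) spaced by √10. With no medium change over 5 days, they were then fixed, permeabilised and Hoechst-stained in one step and imaged at 4×. MetaXpress counted nuclei, and viability is the median across plates of treated-well over vehicle-well nuclei. Acceptance needed control CV below 25% and at least one doubling.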

[1] = compound: Cc1cnc(-c2cnc(NCCNc3ccc(C#N)cn3)nc2-c2ccc(Cl)cc2Cl)[nH]1
In short: as §1

Pimozide = compound: O=c1[nH]c2ccccc2n1C1CCN(CCCC(c2ccc(F)cc2)c2ccc(F)cc2)CC1 [Pimozide]
In short: as §1

CPI-613 = compound: O=C(O)CCCCC(CCSCc1ccccc1)SCc1ccccc1 [CPI-613]
In short: as §1

Docetaxel = compound: CC(=O)O[C@@]12CO[C@@H]1C[C@H](O)[C@@]1(C)C(=O)[C@H](O)C3=C(C)[C@@H](OC(=O)[C@H](O)[C@@H](NC(=O)OC(C)(C)C)c4ccccc4)C[C@@](O)([C@@H](OC(=O)c4ccccc4)[C@H]21)C3(C)C [Docetaxel]
In short: as §1

Cytarabine = compound: Nc1ccn([C@@H]2O[C@H](CO)[C@@H](O)[C@@H]2O)c(=O)n1 [Cytarabine]
In short: as §1

JQ1 = compound: Cc1sc2c(c1C)C(c1ccc(Cl)cc1)=N[C@@H](CC(=O)OC(C)(C)C)c1nnc(C)n1-2 [JQ1]
In short: as §1

Cell Line | relative viability (Tivozanib; 0.005 µM) | relative viability (Tivozanib; 0.01581 µM) | relative viability (Tivozanib; 0.05 µM) | relative viability (Tivozanib; 0.1581 µM) | relative viability (Tivozanib; 0.5 µM) | relative viability ([1]; 0.08 µM) | relative viability ([1]; 0.253 µM) | relative viability ([1]; 0.8 µM) | relative viability ([1]; 2.53 µM) | relative viability (Pimozide; 0.08 µM) | relative viability (Pimozide; 0.253 µM) | relative viability (Pimozide; 0.8 µM) | relative viability (Pimozide; 2.53 µM) | relative viability (Pimozide; 8 µM) | relative viability (CPI-613; 5 µM) | relative viability (CPI-613; 15.81 µM) | relative viability (CPI-613; 50 µM) | relative viability (CPI-613; 158.11 µM) | relative viability (CPI-613; 500 µM) | relative viability (Docetaxel; 0.0002 µM) | relative viability (Docetaxel; 0.000632 µM) | relative viability (Docetaxel; 0.002 µM) | relative viability (Docetaxel; 0.006325 µM) | relative viability (Docetaxel; 0.02 µM) | relative viability (Cytarabine; 0.005 µM) | relative viability (Cytarabine; 0.01581 µM) | relative viability (Cytarabine; 0.05 µM) | relative viability (Cytarabine; 0.1581 µM) | relative viability (Cytarabine; 0.5 µM) | relative viability (JQ1; 0.04 µM) | relative viability (JQ1; 0.1265 µM) | relative viability (JQ1; 0.4 µM) | relative viability (JQ1; 1.265 µM) | relative viability (JQ1; 4 µM)
EPLC-272H | 0.908 | 0.885 | 0.947 | 0.731 | 0.635 | 1.02 | 0.836 | 0.937 | 0.962 | 0.852 | 0.896 | 0.842 | 0.7 | 0.61 | 0.9 | 0.834 | 0.839 | 0.783 | 0.449 | 0.878 | 0.533 | 0.244 | 0.104 | 0.071 | 0.768 | 0.572 | 0.487 | 0.331 | 0.173 | 0.801 | 0.797 | 0.789 | 0.433 | 0.289
PC-3 [JPC-3] | 1.03 | 1.05 | 1.06 | 1.05 | 0.912 | 1 | 0.909 | 1.04 | 1.03 |  | 0.984 | 0.945 | 1.01 | 0.894 | 1.01 | 0.952 | 1.01 | 0.789 | 0.358 | 0.98 | 1.01 | 0.585 | 0.344 | 0.188 | 0.945 | 0.971 | 0.773 | 0.618 | 0.631 | 0.999 | 0.997 | 0.762 | 0.675 | 0.606
NCI-H2342 | 0.88 | 0.948 | 0.886 |  | 0.987 | 1.13 | 0.794 | 0.952 | 0.903 | 1.01 | 0.876 | 0.912 | 0.863 | 0.995 | 0.929 | 1.01 | 1.07 | 0.97 | 1.07 | 1.04 | 0.818 | 0.692 | 0.619 | 0.484 | 0.909 | 0.878 | 0.793 | 0.744 | 0.608 | 1.17 | 0.775 | 0.993 | 0.943 | 0.756
NCI-H2228 | 0.897 | 0.866 | 0.933 | 0.965 | 0.989 | 1.03 | 0.887 | 1.01 | 0.864 | 1.07 | 1.11 | 0.868 | 0.805 | 0.543 | 0.915 | 0.931 | 0.893 | 0.744 | 0.0258 | 0.749 | 0.341 | 0.2 | 0.199 | 0.144 | 0.5 | 0.432 | 0.428 | 0.163 | 0.141 | 0.927 | 0.857 | 0.876 | 0.462 | 0.406
A549 | 0.939 | 0.99 | 0.994 | 0.942 | 0.944 | 1.06 | 0.957 | 0.945 | 0.958 | 0.96 | 0.89 | 0.981 | 0.952 | 0.874 | 0.973 | 0.911 | 0.978 | 0.624 | 0.647 | 0.914 | 0.68 | 0.0907 | 0.0644 | 0.0347 | 0.861 | 0.682 | 0.391 | 0.101 | 0.0441 | 0.953 | 0.912 | 0.909 | 0.686 | 0.363
HCC-78 | 0.85 | 0.942 | 0.955 | 0.732 | 0.757 | 0.999 | 0.807 | 0.936 | 0.928 | 0.859 |  | 0.828 | 0.837 | 0.932 | 0.875 | 0.835 | 0.994 | 0.921 | 0.839 | 0.91 | 0.784 | 0.48 | 0.482 | 0.382 | 1.09 | 0.844 | 0.593 | 0.444 | 0.339 | 0.936 | 0.853 | 0.843 | 0.601 | 0.434
HCC-44 | 0.936 | 0.949 | 0.976 | 1.02 | 0.87 | 0.986 | 0.867 | 1.07 | 1.08 | 0.986 | 0.95 | 0.876 | 0.911 | 0.952 | 1.01 | 0.958 | 1.03 | 0.869 | 0.51 | 0.956 | 0.949 | 0.587 | 0.296 | 0.198 | 0.989 | 0.882 | 0.643 | 0.614 | 0.356 | 0.977 | 0.776 | 0.778 | 0.438 | 0.308
LC-2-ad | 0.975 | 0.995 | 0.928 | 0.815 | 0.569 | 1.03 |  | 0.824 | 0.982 | 0.942 | 0.894 | 0.82 | 0.974 | 0.897 | 0.876 | 0.924 | 0.968 | 0.392 | 0.029 | 0.653 | 0.46 | 0.328 | 0.282 | 0.202 | 0.832 | 0.856 | 0.778 | 0.487 | 0.296 | 0.996 | 0.462 | 0.545 | 0.31 | 0.286
EMC-BAC-2 | 0.935 | 1.06 | 1 | 0.752 | 0.792 | 1.02 | 0.96 | 0.923 | 0.897 | 0.969 | 0.933 | 0.884 | 0.933 | 0.955 | 0.973 | 0.875 | 0.982 | 0.782 | 0.189 | 0.905 | 0.736 | 0.483 | 0.304 | 0.268 | 1.04 | 0.866 | 0.492 | 0.349 | 0.257 | 0.922 | 0.667 | 0.842 | 0.519 | 0.48
ABC-1 | 0.849 | 0.919 | 1 | 0.793 | 0.412 | 0.881 | 0.682 | 0.896 | 0.904 | 0.811 | 1.05 | 0.959 | 0.897 | 0.698 | 1.05 | 0.802 | 1.04 | 0.469 | 0.226 | 0.853 | 0.817 | 0.472 | 0.343 | 0.24 | 0.907 | 0.883 | 0.808 | 0.732 | 0.582 | 0.947 | 0.657 | 0.691 | 0.572 | 0.444
